# Measurements taken from article PMC6261997, “Synergistic enzymatic and bioorthogonal reactions for selective prodrug activation in living systems” (Nature Communications, 2018).
# Assays:
# HUVECs = test: Intracellular Tz accumulation by fluorescence liberation from TCO-CMR, HUVECs; assay type: cell-based; conditions: even in the presence of 500 μM 2
# Method: Next, we tested the intracellular accumulation of Tz via EISA in an attempt to differentiate cancer cells from normal cells. First, we investigated the accumulation of Tz in HeLa cells and HUVECs over time via fluorescence liberation from TCO-CMR (Fig. 3a). Each group of cells was pre-incubated with different concentrations of 2 ranging from 100 to 500 μM for 1, 2, 4, 6, 15 or 24 h. The cells were then washed with PBS thoroughly before the addition of an excessive amount of TCO-CMR (100 μL, 50 μM), and the reaction of TCO-CMR with the intracellular accumulated Tz was allowed to proceed for up to 24 h (Supplementary Fig. 8). In this experimental setting, the total liberated fluorescence was proportional to the amount of 3 accumulated inside the cells. […] Therefore, the optimized concentration of 2 (e.g. 500 μM) and incubation time (e.g. 6 h) were selected to differentiate between cancer and normal cells according to liberated fluorescence intensity (Fig. 3c). […]
# All cells were purchased from the National Infrastructure of Cell Line Resource (Beijing, China). […] After incubation for different durations (1–24 h), the cells were rinsed with PBS, and then 100 μL of 50 μM TCO-CMR (dissolved in PBS) was added for real-time detection of the fluorescence intensity of coumarin in a plate reader (Perkin Elmer).
# Saos-2 cells = test: Clonogenic assay, Saos-2 cells; assay type: cell-based; conditions: pre-treated with 500 μM 2 for 6 h
# Method: (§1) Supplementary Figure 17. Clonogenic assay of different cell lines before and after treatment with 2. HeLa cells, HUVECs and Saos-2 cells were seeded at density of 400 cells per well, CCC-HEH-2 cells were seeded at density of 200 cells per well. Cells were incubated with 500 µM 2 for 6 h in the treatment groups. Cells were not treated with compound 2 in the control groups. Colonies were harvest approximately 10 days after seeding. Scale bar, 10 mm.
# (§2) Supplementary Figure 18. Cytotoxicity of activated Dox against HeLa cells and HUVECs. HeLa cells or HUVECs at the density of 3x10^3 cells per well were incubated with 100 µL of pre-warmed medium containing compound 2 at 300 or 500 µM for 6 h. After washing with PBS, 100 µL of 0.0001-10 µM TCO-Dox was added. After 72 h, cell proliferation was assessed by the MTT assay (n= 6). Error bars indicate standard […]
# (§3) Supplementary Figure 19. […] At each time point, the remaining 2, corresponding generated 3 and remaining TCO-Dox were determined by UPLC-MS/MS. […]
# (§4) Clonogenic assay of cells in vitro: Clonogenic assay was performed according to the standard protocol.6 2×10^5 attached cells were treated with 500 µM of 2 for 6 h in culture dishes. Cells were then detached, re-suspended in cultural medium and counted accurately. […]
# (§5) The glutaraldehyde crystal violet mixture was removed carefully. […] The number of the colonies was counted using a stereomicroscope. […]
# CCC-HEH-2 cells = test: Clonogenic assay, CCC-HEH-2 cells; assay type: cell-based, human; conditions: pre-treated with 500 μM 2 for 6 h
# Method: as §1, §2, §3, §4, §5
smiles,measurement,setting,value
"Cc1nnc(-c2ccc(CC(=O)NCCCCC(NC(=O)Cc3ccc4ccccc4c3)C(=O)NC(Cc3ccc(OP(=O)(O)O)cc3)C(=O)NC(Cc3ccccc3)C(=O)O)cc2)nn1 (stereo not drawn) [compound 2, NapK(Tz)YpF]",liberated fluorescence in HUVECs,HUVECs,only a negligible amount of fluorescence
same,"Surviving Fraction, Saos-2",Saos-2 cells,0±0%
same,"Surviving Fraction, CCC-HEH-2",CCC-HEH-2 cells,92.2 ±8.3%
